From ChEMBL document CHEMBL1201862, “PubChem BioAssay data set” (2004)
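Assay format: 96-well plates, 48-hour exposure. GI50 marks 50% less growth.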 Active and inactive are the calls of the source. Cut-off read from the data, not from the text of the source: active = GI50 up to about 1.1 µM and inactive = higher.

What was measured:
Experiment in all cases: NCI anticancer screen, dose series, 48 h
A549 = test system: A549
ACHN = test system: ACHN
CAKI-1 = test system: CAKI-1
CCRF-CEM = test system: CCRF-CEM
COLO 205 = test system: COLO 205
DLD-1 = test system: DLD-1
DMS-114 = test system: DMS-114
DMS-273 = test system: DMS-273
EKVX = test system: EKVX
HCC 2998 = test system: HCC 2998
HCT-116 = test system: HCT-116
HCT-15 = test system: HCT-15
HL-60 = test system: HL-60
HOP-62 = test system: HOP-62
HOP-92 = test system: HOP-92
HT-29 = test system: HT-29
IGROV-1 = test system: IGROV-1
K562 = test system: K562
KM-20L2 = test system: KM-20L2
KM12 = test system: KM12
LOX IMVI = test system: LOX IMVI
LXFL 529 = test system: LXFL 529
M14 = test system: M14
M19-MEL = test system: M19-MEL
MOLT-4 = test system: MOLT-4
Malme-3M = test system: Malme-3M
NCI-H226 = test system: NCI-H226
NCI-H460 = test system: NCI-H460
NCI-H522 = test system: NCI-H522
OVCAR-3 = test system: OVCAR-3
OVCAR-4 = test system: OVCAR-4
OVCAR-5 = test system: OVCAR-5
OVCAR-8 = test system: OVCAR-8
RPMI-8226 = test system: RPMI-8226
RXF 393 = test system: RXF 393
SF-268 = test system: SF-268
SF-295 = test system: SF-295
SF-539 = test system: SF-539
SK-MEL-28 = test system: SK-MEL-28
SK-MEL-2 = test system: SK-MEL-2
SK-OV-3 = test system: SK-OV-3
SN12C = test system: SN12C
SNB-19 = test system: SNB-19
SR = test system: SR
SW-620 = test system: SW-620
TK-10 = test system: TK-10
UACC-62 = test system: UACC-62
UO-31 = test system: UO-31
XF498 = test system: XF498
786-0 = test system: 786-0
A498 = test system: A498
HOP-18 = test system: HOP-18
NCI-H23 = test system: NCI-H23
SK-MEL-5 = test system: SK-MEL-5
SNB-75 = test system: SNB-75
SNB-78 = test system: SNB-78
U-251 = test system: U-251
UACC-257 = test system: UACC-257
BT-549 = test system: BT-549
DU-145 = test system: DU-145
Hs-578T = test system: Hs-578T
MCF7 = test system: MCF7
MDA-MB-231 = test system: MDA-MB-231
MDA-MB-435 = test system: MDA-MB-435
MDA-N = test system: MDA-N
NCI/ADR-RES = test system: NCI/ADR-RES
PC-3 = test system: PC-3
T47D = test system: T47D

Measured: GI50

CC(/C=C/c1ncccc1OCCCCCC(=O)O)=N\NC1=NCCN1
> 100 µM: HCT-15
inactive: A549 > 100 µM | ACHN > 100 µM | CAKI-1 > 100 µM | CCRF-CEM > 100 µM | COLO 205 > 100 µM | DLD-1 > 100 µM | DMS-114 > 100 µM | DMS-273 > 100 µM | EKVX > 100 µM | HCC 2998 > 100 µM | HCT-116 > 100 µM | HL-60 > 100 µM | HOP-62 > 100 µM | HOP-92 > 100 µM | HT-29 > 100 µM | IGROV-1 > 100 µM | K562 > 100 µM | KM-20L2 > 100 µM | KM12 > 100 µM | LOX IMVI > 100 µM | LXFL 529 > 100 µM | M14 > 100 µM | M19-MEL > 100 µM | MOLT-4 > 100 µM | Malme-3M > 100 µM | NCI-H226 > 100 µM | NCI-H460 > 100 µM | NCI-H522 > 100 µM | OVCAR-3 > 100 µM | OVCAR-4 > 100 µM | OVCAR-5 > 100 µM | OVCAR-8 > 100 µM | RPMI-8226 > 100 µM | RXF 393 68.1 µM | SF-268 > 100 µM | SF-295 > 100 µM | SF-539 > 100 µM | SK-MEL-28 > 100 µM | SK-MEL-2 > 100 µM | SK-OV-3 > 100 µM | SN12C > 100 µM | SNB-19 > 100 µM | SR > 100 µM | SW-620 > 100 µM | TK-10 65.3 µM | UACC-62 > 100 µM | UO-31 > 100 µM | XF498 > 100 µM

O=Cc1c(O)ccc2ccc(O)c(-c3c(O)ccc4ccc(O)cc34)c12
inactive: 786-0 > 100 µM | A498 43.2 µM | A549 > 100 µM | ACHN > 100 µM | CAKI-1 > 100 µM | CCRF-CEM 99.3 µM | COLO 205 > 100 µM | DLD-1 > 100 µM | DMS-114 96.2 µM | DMS-273 > 100 µM | HCT-116 > 100 µM | HL-60 > 100 µM | HOP-18 49.5 µM | HOP-62 > 100 µM | HOP-92 66.7 µM | HT-29 > 100 µM | IGROV-1 > 100 µM | K562 > 100 µM | KM-20L2 > 100 µM | KM12 98.4 µM | LOX IMVI > 100 µM | LXFL 529 75.3 µM | M14 > 100 µM | M19-MEL > 100 µM | MOLT-4 > 100 µM | Malme-3M 37.5 µM | NCI-H226 28.6 µM | NCI-H23 > 100 µM | NCI-H460 > 100 µM | NCI-H522 80.9 µM | OVCAR-3 48.2 µM | OVCAR-4 > 100 µM | OVCAR-5 > 100 µM | OVCAR-8 > 100 µM | RPMI-8226 > 100 µM | RXF 393 44.4 µM | SF-268 > 100 µM | SF-295 53.1 µM | SF-539 52.7 µM | SK-MEL-28 > 100 µM | SK-MEL-2 31.8 µM | SK-MEL-5 > 100 µM | SK-OV-3 > 100 µM | SN12C > 100 µM | SNB-75 88.7 µM | SNB-78 > 100 µM | SR 67.9 µM | SW-620 > 100 µM | TK-10 > 100 µM | U-251 > 100 µM | UACC-257 > 100 µM | UACC-62 77.8 µM | UO-31 > 100 µM
> 100 µM: HCT-15

COc1cc(C2C3=C(COC3=O)Oc3cc4c(cc32)OCO4)cc(OC)c1OC (stereo not drawn)
inactive: T47D > 10 µM | TK-10 > 10 µM
active: 786-0 0.0333 µM | A498 0.00488 µM | A549 0.0354 µM | ACHN < 0.0326 µM | BT-549 245 nM | CAKI-1 0.01 µM | CCRF-CEM 0.0314 µM | COLO 205 0.0333 µM | DLD-1 0.022 µM | DMS-114 0.00962 µM | DMS-273 0.01 µM | DU-145 25.6 nM | EKVX 0.015 µM | HCC 2998 0.0402 µM | HCT-116 < 0.0144 µM | HL-60 0.0154 µM | HOP-18 0.16 µM | HOP-62 < 0.0255 µM | HOP-92 0.0161 µM | Hs-578T 52.1 nM | IGROV-1 0.0489 µM | K562 0.0108 µM | KM-20L2 0.0139 µM | KM12 0.0112 µM | LOX IMVI < 0.0164 µM | LXFL 529 0.00718 µM | M14 0.0326 µM | M19-MEL 0.0269 µM | MCF7 42.3 nM | MDA-MB-231 66.7 nM | MDA-MB-435 29.5 nM | MDA-N 21.9 nM | MOLT-4 0.024 µM | Malme-3M 0.0828 µM | NCI-H226 0.123 µM | NCI-H23 0.0441 µM | NCI-H460 0.0216 µM | NCI-H522 0.001 µM | NCI/ADR-RES 18.5 nM | OVCAR-3 0.025 µM | OVCAR-5 0.274 µM | OVCAR-8 0.0335 µM | PC-3 33.1 nM | RPMI-8226 0.0401 µM | RXF 393 0.0106 µM | SF-268 0.0417 µM | SF-295 0.0109 µM | SF-539 0.0218 µM | SK-MEL-28 0.00771 µM | SK-MEL-2 0.039 µM | SK-MEL-5 0.0198 µM | SK-OV-3 < 0.0144 µM | SN12C 0.0515 µM | SNB-19 0.034 µM | SNB-75 0.00993 µM | SNB-78 0.00849 µM | SR 0.0424 µM | SW-620 0.0173 µM | U-251 0.0262 µM | UACC-257 0.0673 µM | UACC-62 0.0166 µM | UO-31 0.139 µM
< 0.0158 µM: HCT-15
